Sequences and labels used below:
B1: 13 (nucleic acid)
chain: rGrGrGrAfCrGrGfUrArGrGrArAfUfUfCfCrGfCrArAfCfCrAfUfCfCfCrGfUrArAfCfUrAfUrGrGfUfUrArGrAfUrArGrArGfUfUrArArArArAfCfCrAfUrArGrArArGrArGfCrGrGfCfCrGfC
modifications: aptamer
B2: 4 (nucleic acid)
chain: rGrGrGrAfCrGrGfUrArGrGrArAfUfUfCrGfUfCfCrAfUfUfCfUrAfCrArGrAfUrArGrArGrAfUrArArArGfUrArGrArAfUfUfUrArAfCrArArArAfCrAfUrArGrArArGrArGfCrGrGfCfCrGfC
modifications: aptamer
B3: 14 (nucleic acid)
chain: rGrGrGrAfCrGrGfUrArGrGrArAfUfUfCfUfCrGfUfUfCfCfUrGrAfCrArGfCrAfUfUfUrGrArGrAfUrArGrAfUfUfUrArArAfCrArArAfCrGfCrAfCrAfUrArGrArArGrArGfCrGrGfCfCrGfC
modifications: aptamer

Oligonucleotides are written 5' to 3', each unit as a sugar letter and its base; * is a phosphorothioate linkage, no mark a phosphodiester; rarer units and linkages stand in square brackets, end groups in braces. Plain capitals give the bases only. r = 2'-OH (RNA); f = 2'-fluoro

One data set addresses T1, chymase (Homo sapiens, UniProt P23946).
T1 sequence (P23946 22-247): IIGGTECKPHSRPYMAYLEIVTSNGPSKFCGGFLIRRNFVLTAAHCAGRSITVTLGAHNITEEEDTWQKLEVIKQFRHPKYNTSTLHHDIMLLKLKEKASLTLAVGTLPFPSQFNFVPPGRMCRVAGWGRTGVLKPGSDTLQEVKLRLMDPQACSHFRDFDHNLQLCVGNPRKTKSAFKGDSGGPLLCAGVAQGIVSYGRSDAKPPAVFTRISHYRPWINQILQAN
Briefly: Surface plasmon resonance (Biacore T100), aptamer immobilized on SA chip, chymase injected as analyte. Format: binding. Set-up: key: ++: a sequence that binds to chymase significantly more strongly than the negative control 40N; +: a sequence that binds to chymase equivalently compared with the negative control 40N. The conditions noted are these: Table 1; about 1000 RU nucleic acid immobilized, chymase 0.2 μM analyte, running buffer solution A; compared with 40N. The method in brief: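 Aptamer captured on streptavidin SA chip via 5′-biotin 16-nt poly dT (~1500 RU), and 20 μL of 0.2 μM chymase injected as analyte. Running buffer Solution A for SEQ ID NO: 4-20 and 22-34, Solution C for SEQ ID NO: 38-48. Random 30- or 40-nt RNA served as negative control.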
As to B1, the “Binding activity as determined using Biacore” value (from here on “Binding activity as determined”) is reported as “++”.

With B2, the “Binding activity as determined” value is on record as “++”.

Consider B3, for which the “Binding activity as determined” value is listed as “++”.

A further data set addresses T2, LTBP-1 degradation by chymase (Homo sapiens, UniProt P23946).
T2 sequence (P23946 22-247): T1 sequence (P23946 22-247)
Briefly: LTBP-1 degradation inhibitory activity, NHLF culture supernatant, Western blotting. The class given is biochemical. Set-up: key: +: detection of a band with the same level of density as an LTBP-1 band in the control; −: absence of detection of LTBP-1 band as clear as that of the negative control. The conditions noted are these: final nucleic acid concentration 5 μM, chymase 10 ng/mL (0.33 nM), 37° C. 1 hr; visual determination of LTBP-1 band. As to the method: A third method of evaluation employs a native substrate contained in a cell culture supernatant. Here, degradation of chymase substrate LTBP-1 is detected by Western blotting. NHLF cells (manufactured by Cambrex Bio Science) under freezing are rapidly thawed in a 37° C. water bath, and then suspended in a medium (10% FBS/F-12). After centrifugation at 1200 rpm for 5 minutes, the resulting supernatant is removed, and the cells are re-suspended in the medium. Total volume of 10 mL medium is added to the centrifuged cells, and the cell suspension is transferred to a cell culture dish and cultured at 37° C. in the presence of 5% CO2. The cells are observed morphology and proliferation status under a microscope. When the cells become confluent, the medium is replaced with a serum-free medium (0.2% BSA/F-12). Two days after replacement of the medium, the culture supernatant is collected, dispensed, and stored under freezing at −30° C.
After 40 μL of the NHLF culture supernatant, freshly thawed before use, is dispensed to a tube, 5 μL of the nucleic acid solution diluted with solution C is added thereof. For positive control, chymostatin is diluted with solution C, and this dilution is added in the same manner. For negative control, solution C alone is added. Next, 5 μL of a 100 ng/mL dilution of chymase in solution E (solution C+0.1% BSA, 0.05% sodium azide) is added. For control, a chymase-free tube is prepared. After stirring, the sample is incubated at 37° C. for 1 hour, and mixed with an equal volume of lysis buffer for electrophoresis to terminate the reaction. LTBP-1 in the sample is detected by the procedure of Western blotting described below.
The sample mixed in the lysis buffer is boiled for 3 minutes, and 10 μL of the sample is subjected to electrophoresis on 5-20% acrylamide gel. After completion of the electrophoresis, the sample is transferred onto a nitrocellulose filter, after which the filter is blocked with 5% skimmed milk, 50 mM Tris-HCl (pH 8.0), and 0.05% sodium azide. The filter is reacted with a 2 μg/mL dilution of anti-LTBP-1 monoclonal antibody in 2% BSA, PBS, and 0.05% sodium azide at room temperature overnight. […]
As determined according to LTBP-1 band density and position (molecular weight), the band from the chymase-free well serves for positive control (+), and the band from the negative control well serves for negative control (−). […]
Chymase is deeply involved in the activation of TGF-β, which is one of the important factors causing fibrosis. […] Whether the nucleic acid of the present invention has an inhibitory activity against LTBP-1 degradation by chymase was assessed by the method shown below. […]
In general terms: A western blot detects proteins with antibodies after separation by electrophoresis.
Turning to “56 (GGGUUAGAUAGAGUUAAAAACCC; 2'-fluoro at CU, RNA at AG, backbone not given here) [compound 56]”, the “inhibitory activity on LTBP-1 degradation” value (shortened to “inhibitory activity”) was “+”.

On to “58 (GGGUUGAAGAUAUUAAAGAACCC; 2'-fluoro at CU, RNA at AG, backbone not given here) [compound 58]”, for which the “inhibitory activity” value is reported as “−”.

Regarding `CC(C)C[C@H](NC(=O)[C@@H](NC(=O)N[C@@H](Cc1ccccc1)C(=O)O)[C@@H]1CCN=C(N)N1)C(=O)N[C@H](C=O)Cc1ccccc1` [chymostatin, reference compound], the “inhibitory activity” value was “+”.

For the molecule “GGGU(F)U(F)GAAGAU(F)AU(F)U(F)AAAGAAC(F)C(F)C(F) (GGGUUGAAGAUAUUAAAGAACCC; 2'-fluoro at CU, RNA at AG, backbone not given here) [SEQ ID NO: 58]”, the “inhibitory activity” value is “−”.

The record behind these values is patent US9012420B2, “Aptamer for chymase, and use thereof” (Ribomic Inc., priority 2009, dated 2015).
